Key:
[1] = solubility in water; type: physicochemical
[2] = solubility in ethyl acetate; type: physicochemical; conditions: at 25° C.

Compound	solubility of PBA in water ([1]; at 25° C.) [g PBA per 100 g H2O]	solubility in H2O (in words) ([1]; H2O)	volume of ethyl acetate that dissolves 1 gram [2] [mL]
OB(O)c1ccccc1 [PBA, phenyl boronic acid, reference compound]	2.5		
c1ccc(B2OCC3OC4OB(c5ccccc5)OC4C3O2)cc1 (stereo not drawn) [XDE, xylose phenylboronic diester]		extremely insoluble	5
